From PubChem BioAssay (NCI)
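Assay format: 96-well plates, 48-hour exposure. TGI: total growth inhibition.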

Columns and labels:
Experiment in all cases: NCI tumour cell line growth inhibition, 48 h
OVCAR-3 ovarian = system: OVCAR-3 ovarian
EKVX NSCLC = system: EKVX NSCLC
M14 melanoma = system: M14 melanoma
RPMI-8226 leukemia = system: RPMI-8226 leukemia
DMS 273 small cell lung = system: DMS 273 small cell lung
SN12C renal = system: SN12C renal
HL-60(TB) leukemia = system: HL-60(TB) leukemia
HCT-116 colon = system: HCT-116 colon
SF-268 CNS = system: SF-268 CNS
DMS 114 small cell lung = system: DMS 114 small cell lung
SK-MEL-28 melanoma = system: SK-MEL-28 melanoma
SF-539 CNS = system: SF-539 CNS
SF-295 CNS = system: SF-295 CNS
SNB-75 CNS = system: SNB-75 CNS
MALME-3M melanoma = system: MALME-3M melanoma
HOP-62 NSCLC = system: HOP-62 NSCLC
COLO 205 colon = system: COLO 205 colon
NCI-H226 lung = system: NCI-H226 lung
HT29 colon = system: HT29 colon
UO-31 renal = system: UO-31 renal
SK-MEL-2 melanoma = system: SK-MEL-2 melanoma
MOLT-4 leukemia = system: MOLT-4 leukemia
ACHN renal = system: ACHN renal
K-562 leukemia = system: K-562 leukemia
CCRF-CEM leukemia = system: CCRF-CEM leukemia
SW-620 colon = system: SW-620 colon
NCI-H522 lung = system: NCI-H522 lung
TK-10 renal = system: TK-10 renal
HCT-15 colon = system: HCT-15 colon
HOP-18 NSCLC = system: HOP-18 NSCLC
OVCAR-4 ovarian = system: OVCAR-4 ovarian
XF 498 CNS = system: XF 498 CNS
HCC-2998 colon = system: HCC-2998 colon
SK-MEL-5 melanoma = system: SK-MEL-5 melanoma
M19-MEL melanoma = system: M19-MEL melanoma
SNB-19 CNS = system: SNB-19 CNS
NCI-H460 lung = system: NCI-H460 lung
786-0 renal = system: 786-0 renal
LOX IMVI melanoma = system: LOX IMVI melanoma
A549 NSCLC = system: A549 NSCLC
UACC-257 melanoma = system: UACC-257 melanoma
OVCAR-8 ovarian = system: OVCAR-8 ovarian
RXF-631 renal = system: RXF-631 renal
IGROV1 ovarian = system: IGROV1 ovarian
OVCAR-5 ovarian = system: OVCAR-5 ovarian
KM20L2 colon = system: KM20L2 colon
SR leukemia = system: SR leukemia
CAKI-1 renal = system: CAKI-1 renal
RXF 393 renal = system: RXF 393 renal
DLD-1 colon = system: DLD-1 colon
SK-OV-3 ovarian = system: SK-OV-3 ovarian
LXFL 529 NSCLC = system: LXFL 529 NSCLC
HOP-92 NSCLC = system: HOP-92 NSCLC
UACC-62 melanoma = system: UACC-62 melanoma
U251 CNS = system: U251 CNS
NCI-H23 lung = system: NCI-H23 lung
KM12 colon = system: KM12 colon

For `C/C(=N/N)c1ccc2[nH]c3c(C)cc([N+](=O)[O-])c(C)c3c2c1`, which TGI (OVCAR-3 ovarian) is on record?
The TGI was 30.7 µM.

And the TGI (EKVX NSCLC)?
Its TGI is 66.1 µM.

What about the TGI (M14 melanoma) of the same compound?
The TGI was 30.4 µM.

And the TGI (RPMI-8226 leukemia)?
Its TGI is 64 µM.

And the TGI (DMS 273 small cell lung)?
The TGI was 17.4 µM.

What about the TGI (SN12C renal) of the same compound?
Its TGI is 15.8 µM.

And the TGI (HL-60(TB) leukemia)?
The TGI was greater than 100 µM.

And the TGI (HCT-116 colon)?
Its TGI is 17.8 µM.

What about the TGI (SF-268 CNS) of the same compound?
The TGI was 60.4 µM.

What about the TGI (DMS 114 small cell lung) of the same compound?
Its TGI is 25.8 µM.

What about the TGI (SK-MEL-28 melanoma) of the same compound?
The TGI was 24.5 µM.

And the TGI (SF-539 CNS)?
The TGI was 29.3 µM.

What about the TGI (SF-295 CNS) of the same compound?
The TGI was 35.5 µM.

What about the TGI (SNB-75 CNS) of the same compound?
Its TGI is greater than 100 µM.

What about the TGI (MALME-3M melanoma) of the same compound?
Its TGI is 16.4 µM.

What about the TGI (HOP-62 NSCLC) of the same compound?
Its TGI is 20.9 µM.

And the TGI (COLO 205 colon)?
The TGI was 25.5 µM.

And the TGI (NCI-H226 lung)?
Its TGI is 29.2 µM.

And the TGI (HT29 colon)?
The TGI was 90.1 µM.

What about the TGI (UO-31 renal) of the same compound?
The TGI was 22.4 µM.

What about the TGI (SK-MEL-2 melanoma) of the same compound?
Its TGI is 26.3 µM.

And the TGI (MOLT-4 leukemia)?
Its TGI is 19.8 µM.

What about the TGI (ACHN renal) of the same compound?
The TGI was 21.6 µM.

And the TGI (K-562 leukemia)?
Its TGI is 40.7 µM.

What about the TGI (CCRF-CEM leukemia) of the same compound?
The TGI was 30.1 µM.

What about the TGI (SW-620 colon) of the same compound?
The TGI was 24.7 µM.

And the TGI (NCI-H522 lung)?
Its TGI is 36.7 µM.

What about the TGI (TK-10 renal) of the same compound?
Its TGI is 28.4 µM.

What about the TGI (HCT-15 colon) of the same compound?
The TGI was 24.7 µM.

What about the TGI (HOP-18 NSCLC) of the same compound?
The TGI was 24 µM.

What about the TGI (OVCAR-4 ovarian) of the same compound?
Its TGI is 38.3 µM.

And the TGI (XF 498 CNS)?
Its TGI is 24.7 µM.

What about the TGI (HCC-2998 colon) of the same compound?
The TGI was 31.6 µM.

What about the TGI (SK-MEL-5 melanoma) of the same compound?
The TGI was 18.1 µM.

And the TGI (M19-MEL melanoma)?
The TGI was 27.1 µM.

And the TGI (SNB-19 CNS)?
The TGI was 31.8 µM.

And the TGI (NCI-H460 lung)?
Its TGI is 72.4 µM.

And the TGI (786-0 renal)?
Its TGI is 22.2 µM.

What about the TGI (LOX IMVI melanoma) of the same compound?
The TGI was 19.5 µM.

What about the TGI (A549 NSCLC) of the same compound?
Its TGI is 40.6 µM.

What about the TGI (UACC-257 melanoma) of the same compound?
Its TGI is 48.6 µM.

And the TGI (OVCAR-8 ovarian)?
The TGI was 26.5 µM.

Which TGI (RXF-631 renal) does the source give for `COc1cc(C=O)c(-c2cc3c(cc2C=O)OCO3)c(OC)c1OC` here?
Its TGI is greater than 290 µM.

And the TGI (IGROV1 ovarian)?
Its TGI is greater than 290 µM.

And the TGI (OVCAR-3 ovarian)?
Its TGI is 153 µM.

And the TGI (OVCAR-5 ovarian)?
Its TGI is greater than 290 µM.

And the TGI (EKVX NSCLC)?
The TGI was greater than 290 µM.

What about the TGI (RPMI-8226 leukemia) of the same compound?
Its TGI is greater than 290 µM.

And the TGI (DMS 273 small cell lung)?
Its TGI is greater than 290 µM.

And the TGI (SN12C renal)?
Its TGI is 260 µM.

What about the TGI (KM20L2 colon) of the same compound?
Its TGI is 147 µM.

What about the TGI (SR leukemia) of the same compound?
The TGI was greater than 290 µM.

What about the TGI (HL-60(TB) leukemia) of the same compound?
The TGI was greater than 290 µM.

And the TGI (HCT-116 colon)?
Its TGI is 131 µM.

What about the TGI (SF-268 CNS) of the same compound?
Its TGI is greater than 290 µM.

What about the TGI (DMS 114 small cell lung) of the same compound?
The TGI was greater than 290 µM.

What about the TGI (SK-MEL-28 melanoma) of the same compound?
Its TGI is greater than 290 µM.

And the TGI (CAKI-1 renal)?
Its TGI is greater than 290 µM.

What about the TGI (SF-539 CNS) of the same compound?
The TGI was 188 µM.

What about the TGI (SF-295 CNS) of the same compound?
The TGI was 219 µM.

What about the TGI (MALME-3M melanoma) of the same compound?
The TGI was greater than 290 µM.

What about the TGI (HOP-62 NSCLC) of the same compound?
Its TGI is greater than 290 µM.

And the TGI (COLO 205 colon)?
Its TGI is greater than 290 µM.

What about the TGI (NCI-H226 lung) of the same compound?
The TGI was 280 µM.

What about the TGI (HT29 colon) of the same compound?
The TGI was 186 µM.

What about the TGI (SK-MEL-2 melanoma) of the same compound?
The TGI was 190 µM.

And the TGI (RXF 393 renal)?
The TGI was 154 µM.

And the TGI (MOLT-4 leukemia)?
Its TGI is greater than 290 µM.

And the TGI (DLD-1 colon)?
Its TGI is greater than 290 µM.

And the TGI (ACHN renal)?
Its TGI is greater than 290 µM.

What about the TGI (SK-OV-3 ovarian) of the same compound?
Its TGI is greater than 290 µM.

And the TGI (K-562 leukemia)?
Its TGI is greater than 290 µM.

And the TGI (CCRF-CEM leukemia)?
The TGI was greater than 290 µM.

And the TGI (SW-620 colon)?
The TGI was greater than 290 µM.

And the TGI (NCI-H522 lung)?
The TGI was 119 µM.

And the TGI (LXFL 529 NSCLC)?
The TGI was greater than 290 µM.

What about the TGI (HOP-92 NSCLC) of the same compound?
Its TGI is 241 µM.

What about the TGI (TK-10 renal) of the same compound?
Its TGI is greater than 290 µM.

And the TGI (HCT-15 colon)?
Its TGI is 279 µM.

And the TGI (UACC-62 melanoma)?
The TGI was greater than 290 µM.

What about the TGI (HOP-18 NSCLC) of the same compound?
Its TGI is greater than 290 µM.

What about the TGI (HCC-2998 colon) of the same compound?
Its TGI is greater than 290 µM.

What about the TGI (U251 CNS) of the same compound?
The TGI was greater than 290 µM.

What about the TGI (SK-MEL-5 melanoma) of the same compound?
The TGI was greater than 290 µM.

What about the TGI (M19-MEL melanoma) of the same compound?
Its TGI is greater than 290 µM.

And the TGI (SNB-19 CNS)?
Its TGI is greater than 290 µM.

What about the TGI (NCI-H460 lung) of the same compound?
The TGI was greater than 290 µM.

What about the TGI (NCI-H23 lung) of the same compound?
The TGI was 222 µM.

And the TGI (786-0 renal)?
Its TGI is greater than 290 µM.

And the TGI (LOX IMVI melanoma)?
The TGI was greater than 290 µM.

What about the TGI (KM12 colon) of the same compound?
Its TGI is 159 µM.

And the TGI (A549 NSCLC)?
Its TGI is greater than 290 µM.

And the TGI (UACC-257 melanoma)?
The TGI was greater than 290 µM.

And the TGI (OVCAR-8 ovarian)?
The TGI was greater than 290 µM.
